How the values were obtained:
Conditions in all cases: 72 h
Calu-3 [1] = assay: drug sensitivity score (DSS) for viability; higher = more toxic; extreme values may be limits of the assay
Vero E6 [2] = assay: as above
HepG2 [3] = assay: as above
Calu-3 [4] = assay: cell viability relative to DMSO; higher = less toxic
Vero E6 [5] = assay: as above
HepG2 [6] = assay: as above
Caco-2 [7] = assay: as above
U2OS [8] = assay: as above
Caco-2 [9] = assay: drug sensitivity score (DSS) for viability; higher = more toxic; extreme values may be limits of the assay
U2OS [10] = assay: as above
Calu-3 [11] = assay: relative viability EC50 (midpoint between 100% and the lowest measured viability); higher = less toxic
Vero E6 [12] = assay: as above
U2OS [13] = assay: as above
Caco-2 [14] = assay: as above

| Compound | drug sensitivity score (Calu-3 [1]) | drug sensitivity score (Vero E6 [2]) | drug sensitivity score (HepG2 [3]) | cell viability (Calu-3 [4]; 1 nM) [%] | cell viability (Calu-3 [4]; 10 nM) [%] | cell viability (Calu-3 [4]; 100 nM) [%] | cell viability (Calu-3 [4]; 1000 nM) [%] | cell viability (Calu-3 [4]; 10000 nM) [%] | cell viability (Vero E6 [5]; 1 nM) [%] | cell viability (Vero E6 [5]; 10 nM) [%] | cell viability (Vero E6 [5]; 100 nM) [%] | cell viability (Vero E6 [5]; 1000 nM) [%] | cell viability (Vero E6 [5]; 10000 nM) [%] | cell viability (HepG2 [6]; 1 nM) [%] | cell viability (HepG2 [6]; 10 nM) [%] | cell viability (HepG2 [6]; 100 nM) [%] | cell viability (HepG2 [6]; 1000 nM) [%] | cell viability (HepG2 [6]; 10000 nM) [%] | cell viability (Caco-2 [7]; 1 nM) [%] | cell viability (Caco-2 [7]; 10 nM) [%] | cell viability (Caco-2 [7]; 100 nM) [%] | cell viability (Caco-2 [7]; 1000 nM) [%] | cell viability (Caco-2 [7]; 10000 nM) [%] | cell viability (U2OS [8]; 1 nM) [%] | cell viability (U2OS [8]; 10 nM) [%] | cell viability (U2OS [8]; 100 nM) [%] | cell viability (U2OS [8]; 1000 nM) [%] | cell viability (U2OS [8]; 10000 nM) [%] | drug sensitivity score (Caco-2 [9]) | drug sensitivity score (U2OS [10]) | relative viability EC50 (Calu-3 [11]) [µM] | relative viability EC50 (Vero E6 [12]) [µM] | relative viability EC50 (U2OS [13]) [µM] | relative viability EC50 (Caco-2 [14]) [µM] |
| --- | --- | --- | --- | --- | --- | --- | --- | --- | --- | --- | --- | --- | --- | --- | --- | --- | --- | --- | --- | --- | --- | --- | --- | --- | --- | --- | --- | --- | --- | --- | --- | --- | --- | --- |
| Nn1cnc2cc3ccccc3cc2c1=O [centazolone] | 0 | 0 | 0 | – | – | – | – | – | – | – | – | – | – | – | – | – | – | – | – | – | – | – | – | – | – | – | – | – | – | – | – | – | – | – |
| CCCCCCC[N+](CC)(CC)CCCCc1ccc(Cl)cc1 [clofilium] | 0 | 0 | 0.6 | 83.9 | 106 | 91.8 | 93.6 | 87.7 | 89 | 102 | 95.2 | 104 | 116 | 94.1 | 124 | 135 | 122 | 72.5 | 114 | 106 | 101 | 108 | 54.4 | 95.7 | 95.6 | 97.7 | 93 | 92.2 | 1.9 | 0 | > 10 | > 10 | > 10 | – |
| COc1cc(C(=O)OCCCN2CCCN(CCCOC(=O)c3cc(OC)c(OC)c(OC)c3)CC2)cc(OC)c1OC [dilazep] | 0 | 1.8 | 3.3 | 112 | 102 | 93.9 | 103 | 88.1 | 98.5 | 97.3 | 100 | 88.6 | 79.1 | 104 | 89.5 | 102 | 82.4 | 70.4 | 91.6 | 98.3 | 97.1 | 97.1 | 73.6 | 98.9 | 101 | 99.6 | 103 | 84.6 | 1.5 | 0.2 | > 10 | > 10 | > 10 | – |
| COc1ccc2[nH]c([S@@+]([O-])Cc3ncc(C)c(OC)c3C)nc2c1 [esomeprazole] | 0 | 0 | – | 98.3 | 108 | 110 | 96.9 | 103 | 93.8 | 108 | 100 | 97.8 | 107 | – | – | – | – | – | 97.2 | 101 | 101 | 102 | 83.1 | 102 | 102 | 95 | 102 | 95.8 | 0.3 | 0 | > 10 | > 10 | > 10 | > 10 |
| CCC1(C)CC(=O)NC1=O (centres undefined) [ethosuximide] | 0 | 0 | – | 110 | 93.6 | 89.8 | 107 | 94 | 99.2 | 106 | 101 | 103 | 96.6 | – | – | – | – | – | 87 | 77.2 | 88.5 | 84.8 | 84.6 | 102 | 93.4 | 102 | 99.6 | 100 | 0 | 0 | > 10 | > 10 | > 10 | > 10 |
| O=C(Nc1cccc2cccnc12)c1ccc(N2C(=O)[C@@H]3[C@H](C2=O)[C@H]2C=C[C@@H]3C2)cc1 [exo-IWR-1] | 0 | 0 | 0.5 | 87.4 | 103 | 107 | 103 | 102 | 94.2 | 93.1 | 92.2 | 97.1 | 106 | 105 | 99.3 | 103 | 87.9 | 92 | 92.2 | 100 | 103 | 102 | 106 | 99.1 | 104 | 99.6 | 108 | 104 | 0 | 0 | – | – | – | – |
| CN1CCN(c2c(F)cc3c(=O)c(C(=O)O)cn(CCF)c3c2F)CC1 [fleroxacin] | 0 | 0 | – | 88 | 106 | 102 | 108 | 107 | 102 | 105 | 97.6 | 101 | 98.1 | – | – | – | – | – | 102 | 97.2 | 100 | 96.8 | 107 | 96.5 | 93.6 | 104 | 97.1 | 102 | 0 | 0 | > 10 | > 10 | > 10 | > 10 |
| Nc1nnc(-c2cccc(Cl)c2Cl)c(N)n1 [lamotrigine] | 0 | – | – | – | – | – | – | – | – | – | – | – | – | – | – | – | – | – | – | – | – | – | – | – | – | – | – | – | – | 0 | – | – | – | – |
| CC(=O)CC(=O)O [lithium-acetoacetate] | 0 | 0 | – | 98.2 | 101 | 98.9 | 99 | 100 | 103 | 104 | 103 | 97.7 | 105 | – | – | – | – | – | 94 | 104 | 101 | 109 | 99.3 | 98.6 | 101 | 98.1 | 102 | 96.8 | 0 | 0 | > 10 | > 10 | > 10 | > 10 |
| CC(C)(C)NCC(O)c1cc(Cl)c(N)c(C(F)(F)F)c1 (centres undefined) [mabuterol] | 0 | 0 | – | 102 | 97 | 99.6 | 92.8 | 98.2 | 89.1 | 92 | 92.4 | 91.6 | 104 | – | – | – | – | – | 87.6 | 110 | 99.1 | 112 | 85.7 | 97.2 | 93.6 | 98.8 | 97.7 | 93.3 | 0.1 | 0 | > 10 | > 10 | > 10 | > 10 |
| Cc1ccc(Cl)c(Nc2ccccc2C(=O)O)c1Cl [meclofenamic-acid] | 0 | 0 | – | 98.2 | 101 | 88.1 | 109 | 91.8 | 105 | 93.7 | 102 | 101 | 96.5 | – | – | – | – | – | 97.6 | 103 | 95.8 | 102 | 91.2 | 99.3 | 103 | 97.1 | 105 | 96.2 | 0 | 0 | > 10 | > 10 | > 10 | > 10 |
| COc1ccccc1OC(=O)C(C)c1ccc(CC(C)C)cc1 (centres undefined) [metoxibutropate] | 0 | 0 | – | 118 | 105 | 104 | 97.7 | 107 | 99.2 | 102 | 96.9 | 98.7 | 100 | – | – | – | – | – | 95.5 | 104 | 90.2 | 93.1 | 96.7 | 101 | 103 | 97.8 | 99.3 | 100 | 0 | 0 | > 10 | > 10 | > 10 | > 10 |
| CC1(C)NC(=O)N(c2ccc([N+](=O)[O-])c(C(F)(F)F)c2)C1=O [nilutamide] | 0 | 0 | – | 106 | 100 | 94.7 | 104 | 92.7 | 106 | 97.1 | 104 | 94.8 | 96.8 | – | – | – | – | – | 102 | 107 | 117 | 107 | 90.5 | 96 | 104 | 98.2 | 94.8 | 103 | 0 | 0 | > 10 | > 10 | > 10 | > 10 |
| C#C[C@]1(O)CC[C@H]2[C@@H]3CCC4=CC(=O)CC[C@@H]4[C@H]3CC[C@@]21CC [norgestrel] | 0 | 0 | 0 | – | – | – | – | – | – | – | – | – | – | – | – | – | – | – | – | – | – | – | – | – | – | – | – | – | – | 0 | – | – | – | – |
| C=CC(=O)N1CCC(Oc2cc3c(Nc4ccc(Cl)c(Cl)c4F)ncnc3cc2OC)CC1 [poziotinib] | 34.8 | 21.1 | 2.8 | 67.5 | 31.5 | 30 | 27.4 | 18.5 | 86.4 | 60.5 | 58.3 | 45.6 | 8.8 | 105 | 97.3 | 101 | 93.9 | 63.3 | 88.4 | 86.5 | 80.9 | 85.2 | 60.1 | 95.1 | 94.4 | 91.1 | 88 | 19.3 | 6.4 | 6.5 | 0.0016 | 0.0784 | 2 | – |
| CC1=C(/C=C/C(C)=C/C=C/C(C)=C/CO)C(C)(C)CCC1 [retinol] | 0 | – | – | 90.6 | 103 | 101 | 91.7 | 99.5 | – | – | – | – | – | – | – | – | – | – | 108 | 89.4 | 96.7 | 97.8 | 93.2 | 102 | 96.9 | 102 | 96.8 | 103 | 0 | 0 | > 10 | – | > 10 | > 10 |
| Cn1c([N+](=O)[O-])cnc1COC(N)=O [ronidazole] | 0 | 0 | – | 95.6 | 98.6 | 95.3 | 92 | 103 | 98 | 103 | 93.7 | 98.7 | 108 | – | – | – | – | – | 89.2 | 93.5 | 107 | 95.2 | 101 | 96.4 | 97.9 | 99.8 | 97.9 | 99.5 | 0 | 0 | > 10 | > 10 | > 10 | > 10 |
| CN(C(=O)c1c(O)c2ccccc2n(C)c1=O)c1ccccc1 [roquinimex] | 0 | 0 | – | 85.8 | 96.1 | 96 | 95.4 | 108 | 103 | 93.6 | 98.2 | 97.1 | 105 | – | – | – | – | – | 88.7 | 95.5 | 82.2 | 92.5 | 99.5 | 96.5 | 101 | 94.1 | 93.8 | 101 | 0 | 0 | > 10 | > 10 | > 10 | > 10 |
| Nc1ccc(S(=O)(=O)Nc2ncccn2)cc1 [sulfadiazine] | 0.1 | – | – | – | – | – | – | – | – | – | – | – | – | – | – | – | – | – | – | – | – | – | – | – | – | – | – | – | – | – | – | – | – | – |
| NS(=O)(=O)c1cc2c(cc1Cl)NC(C(Cl)Cl)NS2(=O)=O (centres undefined) [trichlormethiazide] | 0 | 0 | 1.4 | – | – | – | – | – | – | – | – | – | – | – | – | – | – | – | – | – | – | – | – | – | – | – | – | – | – | 0 | – | – | – | – |
